The numbers were not newly measured in patent US20250152607A1, “COMPOSITIONS FOR VITAMIN D PRODUCTION” (DR WELLER LIMITED, priority 2022, published 2025), which cites them from elsewhere.

For series [1] the following is noted: powder.

Regarding `CC(C)[C@@H](C)/C=C/[C@@H](C)[C@H]1CC[C@H]2C3=CC=C4C[C@@H](O)CC[C@]4(C)[C@H]3CC[C@]12C` [Ergosterol], in series [1], the skin irritancy result was “skin irritant”.

In the case of `CC1=C(/C=C\C2=CCC[C@]3(C)[C@@H]([C@H](C)CCCC(C)C)CC[C@@H]23)C[C@@H](O)CC1` [pre-vitamin D3], for the setting “by interaction with membrane phospholipids”, the “increase in rate of reaction for vitamin D3 formation from pre-vitamin D3” value is “more than 10 fold”.

On to pre-vitamin D, for which the “time for isomerization of pre-vitamin D to vitamin D to reach equilibrium” value (in hexane at 37° C.) is reported as “up to 10 days”.
